We go through 3 molecules from patent US20060276414A1, “Use of compositions comprising an estrogenic component for the treatment and prevention of musculoskeletal pain” (priority 2003, published 2006).

Data set [1] relates to early breast cancer in postmenopausal women. As to conditions: 9366 patients; cited from earlier work.
Data set [2] deals with musculoskeletal pain in premenopausal breast cancer patients. The data set can be described thus: Example 3: placebo-controlled cross-over study, premenopausal breast cancer patients on estrogen suppressant therapy. Format: in vivo, human patients. To be noted: premenopausal patients with ovarian ablation, estetrol plus estrogen suppressant.
Data set [3] deals with bone resorption, hot flushing and vaginal cornification. The data set can be described thus: agonistic models of in vivo estrogenicity (previous studies). To be noted: data from previous studies. As for the experimental part:
The doses of EE and E4 were based on data from previous studies, showing equipotency of 0.025 mg/kg/day EE and 0.5 mg/kg/day E4 in agonistic models of preventing bone resorption, prevention of hot flushing and vaginal comification.

The test system of data set [4] is DMBA-induced mammary tumours. The experiment in a line: 7,12-dimethyl-benz(a)anthracene (DMBA)-induced tumour model in rats. The data set is classed as in vivo, Sprague-Dawley rats. As for the experimental part: In order to assess the effect of the present estrogenic substances on tumours, estetrol was tested in the 7,12-dimethyl-benz(a)anthracene (DMBA)-induced tumour model in rats. This model, originally developed by Huggins et al.,1961 (Nature,19, 204-207), has been widely used and is a generally accepted model with predictive value for anti-tumour agents in humans. The growth of the DMBA-induced tumours is dependent on endogenously produced estradiol or exogenously administered estrogens and prolactin (Sylvester et al., 1982, Cancer Research, 42, 4943-4947).
Eighty-four female Sprague-Dawley rats (Harlan, The Netherlands) were group housed, maintained in a 12-hr light/dark environment, and fed a Soya Free Diet (SDS England) and water ad libitum. Animals were weighed on a weekly basis. One week prior to induction of mammary carcinoma, 12 animals (aged 43 days) were surgically castrated via removal of the ovaries. At the age of 50 days, all animals were administered a single oral dose of 16 mg DMBA to induce tumour development. Animals were subsequently allocated to one of seven groups (n=12), receiving placebo or treatment as follows:. • Group 1 animals received placebo oral treatment with 3.0 ml/kg/day vehicle (20% wt/vol solution of hydroxypropyl-beta-cyclodextrin in water); • Group 2 surgically castrated animals received placebo treatment with 3.0 ml/kg/day vehicle; • Group 3 animals received the anti-estrogen tamoxifen given orally at a single daily dose of 3 mg/kg; • Group 4 animals received ethinylestradiol (EE) orally at a single daily dose of 0.025 mg/kg; • Group S animals received ethinylestradiol (EE) orally at a single daily dose of 0.125 mg/kg; • Group 6 animals received estetrol (E4) orally at a single daily dose of 0.5 mg/kg; and • Group 7 animals received estetrol (E4) orally at a single daily dose of 2.5 mg/kg.
During the treatment period of 8 weeks, the emergence of palpable tumours and number of tumours were determined weekly. At 8 weeks, at necropsy, final measurements were taken. The number of tumours at necropsy are depicted in FIG. 1.

Data set [5] concerns tumour gene expression profile and musculoskeletal pain in postmenopausal breast cancer patients. The data set can be described thus: Example 4: placebo-controlled cross-over study with fine needle aspiration, postmenopausal breast cancer patients (at least stage III). Format: in vivo, human patients. To be noted: for average musculoskeletal pain sensation value during treatment weeks, vs placebo: 6 weeks.
Description: 20 postmenopausal patients are recruited that have breast cancer in at least clinical staging […], have a palpable macroscopic tumour mass, show estrogen receptor positive tumour histology, have already been treated with either an anti-estrogen or an aromatase inhibitor for at least three months, do no have contraindications for steroid therapy and suffer from musculoskeletal pain complaints (defined as skeletal pain, pain in the legs, arms or back). Furthermore, during the screening phase other diagnoses, such as rheumatoid arthritis and/or other skeletal diseases or joint diseases, are excluded.
(§1) The patients participate in a clinical study with a duration of 15 weeks and are randomized as follows:
(§2) Patients continue with the anti-estrogen treatment they have been receiving previously during the entire period of the study and receive additional daily oral treatment with 4 mg estetrol or a placebo for six weeks. 5 patients start with 4 mg/day oral estetrol treatment and 5 patients with placebo treatment. After a wash-out period of 3 weeks, during which anti-estrogen treatment continues and no additional estetrol or placebo treatment is given, study treatment is reinitiated. Placebo-receiving patients are subsequently treated with 4 mg/day oral estetrol and estetrol-receiving patients with placebo for 6 weeks after which the study is terminated.
as §2, with “aromatase inhibitor” for “anti-estrogen”
The patients visit the study center once weekly, during which the patients are closely monitored by their study physician. During all visits, thorough physical examinations are performed, blood samples are retrieved and a questionnaire, specifically addressing musculoskeletal pain sensation on a graded scale, is completed. Furthermore, three fine needle aspirations (FNA) from the macroscopic tumour are obtained at baseline, during the wash-out and at the last visit after study week 15, respectively. Additionally at the same time points and for all locations with macroscopic palpable tumour activity, tumour sizes are scored. Tumour gene expression profiles are determined by using a FNA-cDNA microarray as described by Sotiriou et al. (Breast Cancer Research 2002,4:R3). Primary endpoints in the study are changes of the gene expression profile, improvement of the musculoskeletal pain and reduction of climacteric complaints, whereas secondary endpoints are clinical tumour progression and changes of tumour markers.

Data set [6] relates to musculoskeletal pain in postmenopausal breast cancer patients. The experiment in a line: Example 2: placebo-controlled cross-over study, postmenopausal breast cancer patients (stage I or II) on estrogen suppressant therapy. The data set is classed as in vivo, human patients. To be noted: for average musculoskeletal pain sensation value during treatment weeks, vs placebo: 4 mg/day oral estetrol, 6 weeks.
Description: 20 postmenopausal patients are recruited that have breast cancer in clinical staging I or II, are adequately being treated surgically, chemotherapeutically and/or radiotherapeutically, show estrogen receptor positive tumour histology and do no have contraindications for steroid therapy, are on treatment with either an anti-estrogen or an aromatase inhibitor for at least three months and suffer from musculoskeletal pain complaints (defined as skeletal pain, pain in the legs, arms or back). Furthermore, during the screening phase other diagnoses, such as rheumatoid arthritis and/or other skeletal diseases or joint diseases, are excluded.
as §1
as §2, with “anti-estrogen treatment that they have” for “anti-estrogen treatment they have”
Patients continue with the aromatase inhibitor treatment that they have been receiving previously during the entire period of the study and receive additional daily oral treatment with 4 mg estetrol or a placebo for six weeks. 5 patients start with 4 mg/day oral estetrol treatment and 5 patients with placebo treatment. After a wash-out period of 3 weeks, during which aromatase inhibitor treatment continues and no additional estetrol or placebo treatment is given, study treatment is reinitiated. Placebo-receiving patients are subsequently treated with 4 mg/day oral estetrol and estetrol-receiving patients with placebo for 6 weeks after which the study is terminated.
The subjects visit the study center once weekly, during which the patients are closely monitored by their study physician. During all visits, thorough physical examinations are performed, blood samples are retrieved and a questionnaire, specifically addressing musculoskeletal pain sensation on a graded scale and climacteric complaints, is completed. Primary endpoints in the study are improvement of the musculoskeletal pain and reduction of climacteric complaints, whereas secondary endpoints are clinical tumour progression and changes of tumour markers.

The subject of data set [7] is DMBA-induced mammary tumours. As to conditions: literature (Hollingsworth et al., 1998); cited from earlier work.
Where [8] appears, read: 4 mg/day oral estetrol added to estrogen suppressant therapy.

For the molecule `CC(C)(C#N)c1cc(Cn2cncn2)cc(C(C)(C)C#N)c1` [anastrozole], in data set [1], the “disease-free survival and incidence of contralateral breast cancer, compared with tamoxifen” value is “significantly superior”.
In the case of `C[C@]12CC[C@@H]3c4ccc(O)cc4CC[C@H]3[C@@H]1[C@@H](O)[C@@H](O)[C@@H]2O` [estetrol, 1,3,5 (10)-estratrien-3,15α,16α,17β-tetrol], the “clinical outcome (musculoskeletal pain) compared with postmenopausal patients” value in data set [2] is “similar-to the clinical outcome reported for postmenopausal breast cancer patients”. The “equipotency with EE in preventing bone resorption, prevention of hot flushing and vaginal cornification” value in data set [3] (0.5 mg/kg/day E4 vs 0.025 mg/kg/day EE) was “equipotency”. Besides, the “equipotency with EE in in vivo estrogenicity (preventing bone resorption, hot flushing, vaginal cornification)” value in data set [3] (2.5 mg/kg/day E4 vs 0.125 mg/kg/day EE) was “equipotency”. Further, the “preventing growth of DMBA-induced tumours, compared with tamoxifen” value in data set [4] (E4 2.5 mg/kg/day orally vs tamoxifen 3 mg/kg/day orally) was “as effective as tamoxifen”. Also, the “mammary tumour development (number of tumours at necropsy)” value in data set [4] (E4 2.5 mg/kg/day orally, 8 weeks, DMBA-treated female rats) is given as “markedly suppressed mammary tumour development”. The “climacteric complaints (questionnaires)” value in data set [5] (setting [8]) and in data set [6] (setting [8]) was “overall reduction” each time. For the same molecule, the “molecular profile on concomitant administration with an anti-estrogen or an aromatase inhibitor” value in data set [5] (4 mg/day oral estetrol plus anti-estrogen or aromatase inhibitor) is on record as “synergistically produces a more beneficial molecular profile”. For the same molecule, the “average musculoskeletal pain sensation value during treatment weeks, vs placebo” value in data set [5] (4 mg/day oral estetrol, concomitant anti-estrogen therapy) is “significantly lower”; in data set [5] (4 mg/day oral estetrol, concomitant aromatase inhibitor therapy), “significantly lower”; in data set [6] (concomitant anti-estrogen therapy), “significantly lower”; in data set [6] (concomitant aromatase inhibitor therapy), “significantly lower”. Further, in data set [5] (4 mg/day oral estetrol, FNA-cDNA microarray), the “changes in the gene-expression profile involved in regulation and deregulation of breast tissue proliferation” value is recorded as “favourable association”. Further, the “tumour progression / sizes of macroscopic tumours” value in data set [5] (additional estetrol treatment, vs baseline and progression data for stages III and more) is “tumours progress more slowly or sizes of macroscopically tumours decline”. Besides, the “clinical tumour progression and tumour markers” value in data set [6] (during treatment with estetrol, vs baseline and recurrency data for stages I and II) is given as “do not show significant adverse changes”.
As for `CC/C(=C(\c1ccccc1)c1ccc(OCCN(C)C)cc1)c1ccccc1` [tamoxifen, reference compound], the “anti-tumour treatment in the DMBA model” value in data set [7] is given as “effective anti-tumour treatments”. For the same molecule, the “development of mammary tumours (number of tumours at necropsy)” value in data set [4] (tamoxifen 3 mg/kg/day orally, 8 weeks, DMBA-treated female rats) is recorded as “inhibiting the development of mammary tumours”.
